Source: patent US20260167675A1, “VIRAL PEPTIDES AND USES THEREOF” (priority 2022, published 2026)

Test system: human HLA-A11
Assay: Flow cytometry binding of a pan HLA-A antibody against K562/HLA-A11 cells pulsed with HBV POL606-616 peptides (peptide loading)
Assay type: cell-based
Settings: maximum MFI pulsed / maximum MFI un-pulsed cells, loaded if S/N > 1.1; for S/N Peptide Concentration (33 μg/ml): K562/HLA-A11 cells pulsed with 33 μg/ml peptide; for S/N Peptide Concentration (100 μg/ml): K562/HLA-A11 cells pulsed with 100 μg/ml peptide
Description: The present Example was designed to assess loading of HBV POL606-616 peptides on HLA-A11 in K562 cells engineered to express human HLA-A11 (K562/HLA-A11 cells). To assess loading of HBV POL606-616 peptides on HLA-A11, K562 cells engineered to express human HLA-A11 (K562/HLA-A11 cells) were pulsed by resuspending the cells in AIM V medium (Gibco. Catalog #31035-025) at a density of 1×10^6 cells/ml followed by the addition of 10 μg/ml human β2-microglobulin (hB2M; EMID Millipore Catalog #475828) and either 100 μg/ml or 33 μg/ml of the indicated peptide (Table 14).
K562/HLA-A11 cells were then incubated overnight at 37° C. Peptide-pulsed cells were then harvested and plated in staining buffer (PBS, without Calcium and Magnesium (Corning, Reference #21-031-CV)+2% FBS (Seradigm, Lot #238B15)) at a density of 200,000 cells per well in a 96-well V-Bottom plate. Cells were incubated with three-fold serial dilutions (5.1 pM-100 nM) with a pan HLA-A antibody (Novus, Catalog #DDX0250P-100) for 30 minutes at 4° C., washed once in staining buffer, and incubated with an Alexa-647 conjugated secondary antibody (Jackson ImmunoResearch, Catalog #115-606-071) at 5 µg/ml for 30 minutes at 4° C. Cells were again washed once in staining buffer and stained with viability dye (CellTrace™ Violet Cell Proliferation Kit, Thermo-Fisher Cat #C34557) for 30 minutes at 4° C. Lastly, cells were washed once in staining buffer and fixed using a 50% solution of BD Cytofix (BD, Catalog #554655). Samples were run and analyzed on an IntelliCyt iQue flow cytometer to calculate mean fluorescence intensity (MFI) on live cells. MFI values were plotted in GraphPad Prism. The secondary antibody alone condition (i.e., no primary antibody) for each dose-response curve was also included in the analysis as a continuation of the three-fold serial dilution and was represented as the lowest dose. The signal-to-noise (S/N) was calculated by dividing the maximum MFI on the pulsed cells by the maximum MFI on un-pulsed K562/HLA-A11 cells (Table 15). Peptides were determined to load if the S/N from pulsed cells/un-pulsed cells was greater than 1.1.

Row | Sequence | S/N Peptide Concentration (33 μg/ml) | S/N Peptide Concentration (100 μg/ml)
1 | GSLPQEHIIQK (Hepatitis B virus) [HBV POL606-616 V4] | 1.5 | 1.5
2 | GSLPQEHIVQK (Hepatitis B virus) [HBV POL606-616 V1] | 1.6 | 1.4
3 | GTLPQEHIVHK (Hepatitis B virus) [HBV POL606-616 V2] | 1.0 | 1.1
4 | GTLPQEHIVQK (Hepatitis B virus) [HBV POL606-616 V3] | 1.6 | 1.5
